Measured values reported in patent US20070208173A1, “CRYSTALLINE HYDRATES OF CEFDINIR CALCIUM SALT” (priority 2006, published 2007).

Tests used:
Assay type in all cases: physicochemical
Solubility in solvents = test: Solubility in solvents
Description: (§1) Cefdinir, calcium salt pentahydrate is stable at temperatures between about 25° C. and about 55° C.

Stability to temperature = details: temperatures between about 25° C. and about 55° C.
Description: as §1

[1] = Moisture Sorption/Desorption
Description: as §1

solubility in acetone (Solubility in solvents; acetone): less than 1 mg/mL | solubility in acetonitrile (Solubility in solvents; acetonitrile): less than 1 mg/mL | solubility in dichloromethane (Solubility in solvents; dichloromethane): less than 1 mg/mL | solubility in dimethylsulfoxide (Solubility in solvents; dimethylsulfoxide): greater than 96 mg/mL | solubility in ethanol (Solubility in solvents; ethanol): less than 1 mg/mL | solubility in methanol (Solubility in solvents; methanol): less than 1 mg/mL | solubility in water (Solubility in solvents; water): about 3 mg/mL | stability at temperature (Stability to temperature): stable | Weight ([1]; Time 0.1 min, 24.9 ° C., Rel. Humid. 51.63 (start)): 6.2888 mg | Weight ([1]; Time 32.6 min, 25.0 ° C., Rel. Humid. 4.83): 6.2448 mg | Weight ([1]; Time 48.6 min, 25.0 ° C., Rel. Humid. 14.82): 6.2605 mg | Weight ([1]; Time 61.7 min, 25.0 ° C., Rel. Humid. 24.85): 6.2704 mg | Weight ([1]; Time 74.6 min, 25.0 ° C., Rel. Humid. 34.82): 6.2782 mg | Weight ([1]; Time 87.6 min, 24.9 ° C., Rel. Humid. 44.75): 6.2849 mg | Weight ([1]; Time 100.6 min, 25.0 ° C., Rel. Humid. 54.93): 6.2910 mg | Weight ([1]; Time 113.6 min, 25.0 ° C., Rel. Humid. 64.86): 6.2957 mg | Weight ([1]; Time 125.2 min, 25.0 ° C., Rel. Humid. 74.81): 6.3005 mg | Weight ([1]; Time 138.9 min, 25.0 ° C., Rel. Humid. 84.80): 6.3064 mg | Weight ([1]; Time 220.7 min, 25.1 ° C., Rel. Humid. 94.58): 6.3638 mg | Weight ([1]; Time 241.5 min, 25.1 ° C., Rel. Humid. 85.41 (desorption)): 6.3265 mg | Weight ([1]; Time 256.2 min, 25.1 ° C., Rel. Humid. 75.18 (desorption)): 6.3087 mg | Weight ([1]; Time 271.2 min, 25.1 ° C., Rel. Humid. 65.07 (desorption)): 6.3015 mg | Weight ([1]; Time 284.1 min, 25.1 ° C., Rel. Humid. 55.11 (desorption)): 6.2965 mg | Weight ([1]; Time 300.4 min, 25.1 ° C., Rel. Humid. 45.16 (desorption)): 6.2899 mg | Weight ([1]; Time 313.1 min, 25.1 ° C., Rel. Humid. 35.08 (desorption)): 6.2827 mg | Weight ([1]; Time 326.1 min, 25.0 ° C., Rel. Humid. 25.12 (desorption)): 6.2745 mg | Weight ([1]; Time 338.7 min, 25.0 ° C., Rel. Humid. 15.13 (desorption)): 6.2650 mg | Weight ([1]; Time 360.9 min, 25.0 ° C., Rel. Humid. 5.03 (desorption)): 6.2484 mg
Compound: C=CC1=C(C(=O)[O-])N2C(=O)[C@@H](NC(=O)/C(=N\O)c3csc(N)n3)[C@H]2SC1.C=CC1=C(C(=O)[O-])N2C(=O)[C@@H](NC(=O)/C(=N\O)c3csc(N)n3)[C@H]2SC1.O.O.O.O.O.[Ca+2] (single isomer, unassigned) [Cefdinir, calcium salt pentahydrate, calcium (6R-(6α,7β(Z)))-7-(((2-amino-1,3-thiazol-4-yl)(hydroxyimino)acetyl)amino)-3-ethenyl-8-oxo-5-thia-1-azabicyclo[4.2.0]oct-2-ene-2-carboxylate (cefdinir, calcium salt, syn-isomer) pentahydrate]
